Patent US20110071108A1, “Beta-Cyclodextrin Derivatives as Antibacterial Agents” (Pinnacle Pharmaceuticals, Inc., priority 2005, published 2011)

What was measured:
Assay in all cases: Bacterial panel testing, MIC by broth microdilution
Format in all cases: cell-based
Details in all cases: 20-24 hours growth
Bacillus atrophaeus = tested on: Bacillus atrophaeus
Method in brief: (§1)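 Bacteria are cultured briefly at 37° C, standardized to McFarland density and diluted into Mueller-Hinton or Brain Heart infusion media. Compound from a 10 μg/ml DMSO solution is serially diluted twofold in this inoculated medium, and growth inhibition is scored as clear wells after 20-24 h.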

Enterococcus faecium = tested on: Enterococcus faecium
Method in brief: as §1

Eschericia coli = tested on: Eschericia coli
Method in brief: as §1

Pseudomonas aeruginosa = tested on: Pseudomonas aeruginosa
Method in brief: as §1

Salmonella choleraesuis = tested on: Salmonella choleraesuis
Method in brief: as §1

Staphylococcus aureus = tested on: Staphylococcus aureus
Method in brief: as §1

CSCCC(N)C(=O)NCC1OC2OC3C(CNC(=O)C(N)CCSC)OC(OC4C(CNC(=O)C(N)CCSC)OC(OC5C(CNC(=O)C(N)CCSC)OC(OC6C(CNC(=O)C(N)CCSC)OC(OC7C(CNC(=O)C(N)CCSC)OC(OC8C(CNC(=O)C(N)CCSC)OC(OC1C(O)C2O)C(O)C8O)C(O)C7O)C(O)C6O)C(O)C5O)C(O)C4O)C(O)C3O.Cl.Cl.Cl.Cl.Cl.Cl.Cl (stereo not drawn)
>200 µg/mL: MIC BA (Bacillus atrophaeus) | MIC EF (Enterococcus faecium) | MIC EC (Eschericia coli) | MIC PA (Pseudomonas aeruginosa) | MIC SC (Salmonella choleraesuis) | MIC SA (Staphylococcus aureus)

O=C(Cn1ccnc1)NCC1OC2OC3C(CNC(=O)Cn4ccnc4)OC(OC4C(CNC(=O)Cn5ccnc5)OC(OC5C(CNC(=O)Cn6ccnc6)OC(OC6C(CNC(=O)Cn7ccnc7)OC(OC7C(CNC(=O)Cn8ccnc8)OC(OC8C(CNC(=O)Cn9ccnc9)OC(OC1C(O)C2O)C(O)C8O)C(O)C7O)C(O)C6O)C(O)C5O)C(O)C4O)C(O)C3O (stereo not drawn)
>200 µg/mL: MIC BA (Bacillus atrophaeus) | MIC EF (Enterococcus faecium) | MIC EC (Eschericia coli) | MIC PA (Pseudomonas aeruginosa) | MIC SC (Salmonella choleraesuis) | MIC SA (Staphylococcus aureus)

OCC1OC(OCc2cn(CC3OC4OC5C(Cn6cc(COC7OC(CO)C(O)C(O)C7O)nn6)OC(OC6C(Cn7cc(COC8OC(CO)C(O)C(O)C8O)nn7)OC(OC7C(Cn8cc(COC9OC(CO)C(O)C(O)C9O)nn8)OC(OC8C(Cn9cc(COC%10OC(CO)C(O)C(O)C%10O)nn9)OC(OC9C(Cn%10cc(COC%11OC(CO)C(O)C(O)C%11O)nn%10)OC(OC%10C(Cn%11cc(COC%12OC(CO)C(O)C(O)C%12O)nn%11)OC(OC3C(O)C4O)C(O)C%10O)C(O)C9O)C(O)C8O)C(O)C7O)C(O)C6O)C(O)C5O)nn2)C(O)C(O)C1O (stereo not drawn)
>200 µg/mL: MIC BA (Bacillus atrophaeus) | MIC EF (Enterococcus faecium) | MIC EC (Eschericia coli) | MIC PA (Pseudomonas aeruginosa) | MIC SC (Salmonella choleraesuis) | MIC SA (Staphylococcus aureus)

CN(C)CCNCC(=O)NCC1OC2OC3C(CNC(=O)CNCCN(C)C)OC(OC4C(CNC(=O)CNCCN(C)C)OC(OC5C(CNC(=O)CNCCN(C)C)OC(OC6C(CNC(=O)CNCCN(C)C)OC(OC7C(CNC(=O)CNCCN(C)C)OC(OC8C(CNC(=O)CNCCN(C)C)OC(OC1C(O)C2O)C(O)C8O)C(O)C7O)C(O)C6O)C(O)C5O)C(O)C4O)C(O)C3O.Cl.Cl.Cl.Cl.Cl.Cl.Cl (stereo not drawn)
>200 µg/mL: MIC BA (Bacillus atrophaeus) | MIC EF (Enterococcus faecium) | MIC EC (Eschericia coli) | MIC SC (Salmonella choleraesuis) | MIC SA (Staphylococcus aureus)

Cl.Cl.Cl.Cl.Cl.Cl.Cl.O=C(CN1CCOCC1)NCC1OC2OC3C(CNC(=O)CN4CCOCC4)OC(OC4C(CNC(=O)CN5CCOCC5)OC(OC5C(CNC(=O)CN6CCOCC6)OC(OC6C(CNC(=O)CN7CCOCC7)OC(OC7C(CNC(=O)CN8CCOCC8)OC(OC8C(CNC(=O)CN9CCOCC9)OC(OC1C(O)C2O)C(O)C8O)C(O)C7O)C(O)C6O)C(O)C5O)C(O)C4O)C(O)C3O (stereo not drawn)
>200 µg/mL: MIC BA (Bacillus atrophaeus) | MIC EF (Enterococcus faecium) | MIC EC (Eschericia coli) | MIC PA (Pseudomonas aeruginosa) | MIC SC (Salmonella choleraesuis) | MIC SA (Staphylococcus aureus)

CC(C)(C)OC(=O)NCCCC[C@H](N)C(=O)NCC1OC2OC3C(CNC(=O)[C@@H](N)CCCCNC(=O)OC(C)(C)C)OC(OC4C(CNC(=O)[C@@H](N)CCCCNC(=O)OC(C)(C)C)OC(OC5C(CNC(=O)[C@@H](N)CCCCNC(=O)OC(C)(C)C)OC(OC6C(CNC(=O)[C@@H](N)CCCCNC(=O)OC(C)(C)C)OC(OC7C(CNC(=O)[C@@H](N)CCCCNC(=O)OC(C)(C)C)OC(OC8C(CNC(=O)[C@@H](N)CCCCNC(=O)OC(C)(C)C)OC(OC1C(O)C2O)C(O)C8O)C(O)C7O)C(O)C6O)C(O)C5O)C(O)C4O)C(O)C3O (stereo partly drawn)
>200 µg/mL: MIC BA (Bacillus atrophaeus) | MIC EF (Enterococcus faecium) | MIC EC (Eschericia coli) | MIC PA (Pseudomonas aeruginosa) | MIC SC (Salmonella choleraesuis) | MIC SA (Staphylococcus aureus)

Cl.Cl.Cl.Cl.Cl.Cl.Cl.Cl.Cl.Cl.Cl.Cl.Cl.Cl.Cl.Cl.Cl.Cl.Cl.Cl.Cl.NCCCCC(N)C(=O)NC(CCCCN)C(=O)NCC1OC2OC3C(CNC(=O)C(CCCCN)NC(=O)C(N)CCCCN)OC(OC4C(CNC(=O)C(CCCCN)NC(=O)C(N)CCCCN)OC(OC5C(CNC(=O)C(CCCCN)NC(=O)C(N)CCCCN)OC(OC6C(CNC(=O)C(CCCCN)NC(=O)C(N)CCCCN)OC(OC7C(CNC(=O)C(CCCCN)NC(=O)C(N)CCCCN)OC(OC8C(CNC(=O)C(CCCCN)NC(=O)C(N)CCCCN)OC(OC1C(O)C2O)C(O)C8O)C(O)C7O)C(O)C6O)C(O)C5O)C(O)C4O)C(O)C3O (stereo not drawn)
>200 µg/mL: MIC BA (Bacillus atrophaeus) | MIC EF (Enterococcus faecium) | MIC EC (Eschericia coli) | MIC PA (Pseudomonas aeruginosa) | MIC SC (Salmonella choleraesuis) | MIC SA (Staphylococcus aureus)

Cl.Cl.Cl.Cl.Cl.Cl.Cl.O=C(NCC1OC2OC3C(CNC(=O)C4CC(O)CN4)OC(OC4C(CNC(=O)C5CC(O)CN5)OC(OC5C(CNC(=O)C6CC(O)CN6)OC(OC6C(CNC(=O)C7CC(O)CN7)OC(OC7C(CNC(=O)C8CC(O)CN8)OC(OC8C(CNC(=O)C9CC(O)CN9)OC(OC1C(O)C2O)C(O)C8O)C(O)C7O)C(O)C6O)C(O)C5O)C(O)C4O)C(O)C3O)C1CC(O)CN1 (stereo not drawn)
>200 µg/mL: MIC BA (Bacillus atrophaeus) | MIC EF (Enterococcus faecium) | MIC EC (Eschericia coli) | MIC PA (Pseudomonas aeruginosa) | MIC SC (Salmonella choleraesuis) | MIC SA (Staphylococcus aureus)

O[C@@H]1[C@@H](O)[C@H]2O[C@H]3[C@H](O)[C@@H](O)[C@@H](O[C@H]4[C@H](O)[C@@H](O)[C@@H](O[C@H]5[C@H](O)[C@@H](O)[C@@H](O[C@H]6[C@H](O)[C@@H](O)[C@@H](O[C@H]7[C@H](O)[C@@H](O)[C@@H](O[C@H]8[C@H](O)[C@@H](O)[C@@H](O[C@@H]1[C@@H](Cn1ccnc1)O2)O[C@@H]8Cn1ccnc1)O[C@@H]7Cn1ccnc1)O[C@@H]6Cn1ccnc1)O[C@@H]5Cn1ccnc1)O[C@@H]4Cn1ccnc1)O[C@@H]3Cn1ccnc1
>200 µg/mL: MIC BA (Bacillus atrophaeus) | MIC EF (Enterococcus faecium) | MIC EC (Eschericia coli) | MIC PA (Pseudomonas aeruginosa) | MIC SC (Salmonella choleraesuis) | MIC SA (Staphylococcus aureus)

OCCCNC[C@H]1O[C@@H]2O[C@H]3[C@H](O)[C@@H](O)[C@@H](O[C@H]4[C@H](O)[C@@H](O)[C@@H](O[C@H]5[C@H](O)[C@@H](O)[C@@H](O[C@H]6[C@H](O)[C@@H](O)[C@@H](O[C@H]7[C@H](O)[C@@H](O)[C@@H](O[C@H]8[C@H](O)[C@@H](O)[C@@H](O[C@H]1[C@H](O)[C@H]2O)O[C@@H]8CNCCCO)O[C@@H]7CNCCCO)O[C@@H]6CNCCCO)O[C@@H]5CNCCCO)O[C@@H]4CNCCCO)O[C@@H]3CNCCCO
>200 µg/mL: MIC BA (Bacillus atrophaeus) | MIC EF (Enterococcus faecium) | MIC EC (Eschericia coli) | MIC PA (Pseudomonas aeruginosa) | MIC SC (Salmonella choleraesuis) | MIC SA (Staphylococcus aureus)

CN(C)CCNC[C@H]1O[C@@H]2O[C@H]3[C@H](O)[C@@H](O)[C@@H](O[C@H]4[C@H](O)[C@@H](O)[C@@H](O[C@H]5[C@H](O)[C@@H](O)[C@@H](O[C@H]6[C@H](O)[C@@H](O)[C@@H](O[C@H]7[C@H](O)[C@@H](O)[C@@H](O[C@H]8[C@H](O)[C@@H](O)[C@@H](O[C@H]1[C@H](O)[C@H]2O)O[C@@H]8CNCCN(C)C)O[C@@H]7CNCCN(C)C)O[C@@H]6CNCCN(C)C)O[C@@H]5CNCCN(C)C)O[C@@H]4CNCCN(C)C)O[C@@H]3CNCCN(C)C
>200 µg/mL: MIC BA (Bacillus atrophaeus) | MIC EF (Enterococcus faecium) | MIC EC (Eschericia coli) | MIC PA (Pseudomonas aeruginosa) | MIC SC (Salmonella choleraesuis) | MIC SA (Staphylococcus aureus)

O[C@@H]1[C@@H](O)[C@H]2O[C@H]3[C@H](O)[C@@H](O)[C@@H](O[C@H]4[C@H](O)[C@@H](O)[C@@H](O[C@H]5[C@H](O)[C@@H](O)[C@@H](O[C@H]6[C@H](O)[C@@H](O)[C@@H](O[C@H]7[C@H](O)[C@@H](O)[C@@H](O[C@H]8[C@H](O)[C@@H](O)[C@@H](O[C@@H]1[C@@H](CN1CCOCC1)O2)O[C@@H]8CN1CCOCC1)O[C@@H]7CN1CCOCC1)O[C@@H]6CN1CCOCC1)O[C@@H]5CN1CCOCC1)O[C@@H]4CN1CCOCC1)O[C@@H]3CN1CCOCC1
>200 µg/mL: MIC BA (Bacillus atrophaeus) | MIC EF (Enterococcus faecium) | MIC EC (Eschericia coli) | MIC PA (Pseudomonas aeruginosa) | MIC SC (Salmonella choleraesuis) | MIC SA (Staphylococcus aureus)

Oc1ccc(NC[C@H]2O[C@@H]3O[C@H]4[C@H](O)[C@@H](O)[C@@H](O[C@H]5[C@H](O)[C@@H](O)[C@@H](O[C@H]6[C@H](O)[C@@H](O)[C@@H](O[C@H]7[C@H](O)[C@@H](O)[C@@H](O[C@H]8[C@H](O)[C@@H](O)[C@@H](O[C@H]9[C@H](O)[C@@H](O)[C@@H](O[C@H]2[C@H](O)[C@H]3O)O[C@@H]9CNc2ccc(O)cc2)O[C@@H]8CNc2ccc(O)cc2)O[C@@H]7CNc2ccc(O)cc2)O[C@@H]6CNc2ccc(O)cc2)O[C@@H]5CNc2ccc(O)cc2)O[C@@H]4CNc2ccc(O)cc2)cc1
>200 µg/mL: MIC BA (Bacillus atrophaeus) | MIC EF (Enterococcus faecium) | MIC EC (Eschericia coli) | MIC PA (Pseudomonas aeruginosa) | MIC SC (Salmonella choleraesuis) | MIC SA (Staphylococcus aureus)

CCCCCCCCCCCCNCC1OC2OC3C(CNCCCCCCCCCCCC)OC(OC4C(CNCCCCCCCCCCCC)OC(OC5C(CNCCCCCCCCCCCC)OC(OC6C(CNCCCCCCCCCCCC)OC(OC7C(CNCCCCCCCCCCCC)OC(OC8C(CNCCCCCCCCCCCC)OC(OC1C(O)C2O)C(O)C8O)C(O)C7O)C(O)C6O)C(O)C5O)C(O)C4O)C(O)C3O (stereo not drawn)
>200 µg/mL: MIC BA (Bacillus atrophaeus) | MIC EF (Enterococcus faecium) | MIC EC (Eschericia coli) | MIC PA (Pseudomonas aeruginosa) | MIC SC (Salmonella choleraesuis)

CCCCCCCCCCCCCCCCNCC1OC2OC3C(CNCCCCCCCCCCCCCCCC)OC(OC4C(CNCCCCCCCCCCCCCCCC)OC(OC5C(CNCCCCCCCCCCCCCCCC)OC(OC6C(CNCCCCCCCCCCCCCCCC)OC(OC7C(CNCCCCCCCCCCCCCCCC)OC(OC8C(CNCCCCCCCCCCCCCCCC)OC(OC1C(O)C2O)C(O)C8O)C(O)C7O)C(O)C6O)C(O)C5O)C(O)C4O)C(O)C3O (stereo not drawn)
>200 µg/mL: MIC BA (Bacillus atrophaeus) | MIC EF (Enterococcus faecium) | MIC EC (Eschericia coli) | MIC PA (Pseudomonas aeruginosa) | MIC SC (Salmonella choleraesuis)
